Measurements reported in paper PMC8794255, “Small molecule inhibitor of Igf2bp1 represses Kras and a pro-oncogenic phenotype in cancer cells” (RNA Biology, 2021).
Where “and” joins values, the source holds several entries; their conditions need not be identical. Identical values can stand only once.

How the values were obtained:
[1] = system: Igf2bp1-cMyc RNA interaction; parameters: method as in PMID 28846937; settings: fluorescence polarization; cited from earlier work
[2] = parameters: method as in PMID 28846937; settings: cited from earlier work
[3] = biological target: T1, Igf2bp1 (Homo sapiens, UniProt Q9NZI8); test: Fluorescence polarization (FP) assay of Igf2bp1 binding to fluorescent Kras 6 RNA; settings: FP dose response; read-out: IC50, inhibition of Igf2bp1 binding to Kras 6 RNA
T1 construct: Recombinant full-length Igf2bp1 protein was labelled with RED-tris-NTA dye; made in house
Procedure: For the small-molecule screen, compounds were obtained from the collection maintained at the Grand Israel National Center for Personalized Medicine, consisting of molecules purchased from commercial vendors. Labelled RNA (10 nM) was incubated with recombinant Igf2bp1 protein (400 nM) in FAM-RNA buffer (10 mM Tris pH 8.0, 75 mM KCl, 0.5 mM EDTA, 1 mM DTT, 0.0188 U/μL RNAsin, 0.0005 μg/mL heparin, 0.0001 μg/μL tRNA, 0.01% Triton X-100, 3 mM MgCl2, 0.05% IGEPAL) at room temperature for 15 min. 7 μL of this reaction mix was aliquoted with GNF WDII (USA) into wells of 1536 well plates, with a final concentration of 20 μM compound or DMSO. The plates were spun down and read in a BMG Pherastar FS (Germany) plate reader, in FP mode with a 485/520/520 polarization filter, calibrated to 35 mP for free fluorescein with similar total intensity as experimental samples. […]
To determine the quality of our screening assay, the Z’ factor for each plate was calculated with a Z’ factor greater than 0.5 indicating a robust assay suitable for high throughput screening. Compounds that altered the overall fluorescence intensity compared to controls were considered auto florescence and excluded from further analysis. […] Any small molecule that causes a change of more than three standard deviations from the mean is determined appropriate for further investigation.

[4] = biological target: T1, Igf2bp1; test: Microscale thermophoresis (MST), full-length Igf2bp1; settings: full-length protein, read-out: KD of compound binding to Igf2bp1
Procedure: Recombinant full-length Igf2bp1 protein was labelled with RED-tris-NTA dye using a Monolith NT His-Tag Labelling Kit (NanoTemper) while RRM12, KH12 and KH34 di-domain peptides were labelled using the Protein Labelling Kit RED NHS 2nd generation (NanoTemper). Labelled proteins were spun at 15,000 g for 5 min to eliminate aggregates. All samples were 2X labelled protein mix of Igf2bp1 (200 nM) in PBST and were combined (1:1) with serial dilutions of compound or Kras6 RNA in binding buffer (10mMTris pH = 7.5, 100 mM NaCl, 0.1 mM EDTA, 0.06% IPEGAL, 0.02 μg/μL tRNA, 2 mM DTT, 0.1 μg/μL heparin) in final volume of 20 μL, room temperature for 15 min. Samples were then loaded into standard capillaries (NanoTemper) and read in the Monolith NT.115 scanner (NanoTemper) using the red filter with reading conditions of 95% LED power and 40% MST power, 5 sec fluorescence before, 30 sec MST on, 5 sec fluorescence after and 25 sec delay between samples. Results were analysed using the MO Control software (NanoTemper) for curve fitting to KD.

[5] = biological target: T1, Igf2bp1; test: EMSA, Igf2bp1 with fluorescent Kras 6 RNA; type: binding; settings: compound pre-incubated with protein; 7773 at 200 μM
Procedure: Recombinant Igf2bp1 protein was serially diluted (1:1) starting at an initial concentration of 10,000 nM in 0.75 μg heparin, in a total volume of 13 μL. […] 2 μL RNA was added to each well protein sample, and after a 30 min incubation at room temperature in the dark, loading dye (3 μL) (30% glycerol, 0.01% bromocresol green) was added to each mixture. For compound inhibition experiments, compounds or DMSO were incubated for 4 hours at 37 °C with the protein prior to adding the RNA. Samples were electrophoresed on native TBE polyacrylamide gels (6% acrylamide/bis-acrylamide 37.5:1, 0.5X TBE) that had been pre-run for 30 min. Gels were run at 120 V in 0.5X TBE, at 4°C in the dark. They were then carefully washed and scanned using a Typhoon FLA9500 imager using Alexa 488 laser and LPB1/2 filter. Igf2bp1-RNA complex formation was quantified using the ImageJ software. Prism6 software was used for curve fitting and KD calculations.

T1 sequence (Q9NZI8 whole entry): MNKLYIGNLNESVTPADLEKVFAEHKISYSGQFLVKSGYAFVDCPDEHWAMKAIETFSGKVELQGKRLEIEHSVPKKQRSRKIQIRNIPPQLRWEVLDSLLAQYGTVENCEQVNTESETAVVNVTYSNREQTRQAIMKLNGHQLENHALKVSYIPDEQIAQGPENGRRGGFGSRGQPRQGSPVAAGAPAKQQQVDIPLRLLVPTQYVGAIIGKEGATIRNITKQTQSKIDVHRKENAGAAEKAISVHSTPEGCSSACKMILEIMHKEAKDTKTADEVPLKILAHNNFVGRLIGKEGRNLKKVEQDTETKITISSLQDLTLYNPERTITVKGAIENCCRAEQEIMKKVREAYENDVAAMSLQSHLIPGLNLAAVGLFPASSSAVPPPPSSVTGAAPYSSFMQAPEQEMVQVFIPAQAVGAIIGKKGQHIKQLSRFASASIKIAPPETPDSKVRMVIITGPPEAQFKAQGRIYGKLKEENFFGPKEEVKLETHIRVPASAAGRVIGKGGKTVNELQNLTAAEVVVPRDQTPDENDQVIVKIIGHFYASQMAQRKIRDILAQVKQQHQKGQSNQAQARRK

| Structure (SMILES) | Inhibition of Igf2bp1-cMyc RNA interaction in vitro [1] | Effect on cell proliferation [2] | IC50 [3] | Kd [4] | Inhibition of Igf2bp1 binding to Kras 6 RNA (gel shift) [5] |
| --- | --- | --- | --- | --- | --- |
| NC(=O)c1ccccc1N=Cc1ccc(Br)s1 [BTYNB] | inhibited Igf2bp1-cMyc RNA interaction in vitro | appears to inhibit cell proliferation | – | – | – |
| O=C(c1cccc(-n2cnnn2)c1)N1CCCC(Nc2ccc3c(c2)OCO3)C1 (centres unmarked) [compound 393] | – | – | ~90 µM | > 100 µM and ~120 µM | lower, but observable, inhibition of RNA binding |
